Measurements from patent US20060135798A1, “2-Methylene-19-nor-(20S)-1alpha-hydroxy-trishomopregnacalciferol” (Wisconsin Alumni Research Foundation, priority 2004, published 2006).

Key:
[1] = test system: parathyroid hormone (PTH); assay: PTH suppression in adult rats; type: in vivo, rat; conditions: ip, 7 consecutive days
Method: (§1) Adult, female Sprague-Dawley rats were obtained from Harlan (Madison, Wis.).
(§2) Upon receipt, the animals were identified by individual tail marks. Animals were housed in suspended, stainless steel, wire-bottom cages. Each cage contained one animal. The animal rooms were maintained at a temperature of 68 to 72° F. and a relative humidity of 25 to 75%. The holding rooms were set to provide 12 hours of light per day. Water and a purified rodent diet (Suda et al., Purified Rodent Diet-Diet 11) containing […] 0.3% phosphorus and fat soluble vitamins A, D, E and K were provided ad libitum.
(§3) Animals were randomly assigned to treatment groups (5 animals/group). All doses were administered intraperitoneally in 100 microliters of propylene glycol. Four to seven consecutive doses were given approximately 24 hours apart. Dosing was initiated after the animals had been allowed to acclimate for at least one week.
Both control and test articles were administered by intraperitoneal injection in 100 microliters for 4-7 consecutive days spaced approximately 24 hours apart. 1,25(OH)2D3 was given for 4 consecutive days, whereas, the test drugs were given for 7 consecutive days.
Twenty-four hours after the final dose, blood was collected from the tail artery and the concentration of bioactive serum PTH was measured using the rat BioActive Intact PTH ELISA Kit from Immutopics, Inc. (San Clemente, Calif.).

HL-60 cells = assay: HL-60 differentiation (nitro blue tetrazolium reduction); type: cell-based, human; conditions: compared with 1,25-(OH)2D3; FIG. 2
Method: The study drugs were dissolved in ethanol and the concentrations determined using UV spectrophotometry. Serial dilutions were prepared so that a range of drug concentrations could be tested without changing the final concentration of ethanol (≦0.2%) present in the cell cultures.
Human promyelocytic leukemia (HL60) cells were grown in RPMI-1640 medium containing 10% fetal bovine serum. The cells were incubated at 37° C. in the presence of 5% CO2.
HL60 cells were plated at 1.2×10^5 cells/ml. Eighteen hours after plating, cells in duplicate were treated with drug. Four days later, the cells were harvested and a nitro blue tetrazolium reduction assay was performed (Collins et al., 1979; J. Exp. Med. 149:969-974). The percentage of differentiated cells was determined by counting a total of 200 cells and recording the number that contained intracellular black-blue formazan deposits. Verification of differentiation to monocytic cells was determined by measuring phagocytic activity (data not shown).

[2] = Bone calcium mobilization (serum calcium on low calcium diet); type: in vivo, rat; conditions: rats, ip, even at 2340 pmol/day; FIG. 4
Method: (§4) Male, weanling Sprague-Dawley rats were placed on Diet 11 (0.47% Ca) diet +AEK for one week followed by Diet 11 (0.02% Ca) +AEK for 3 weeks. The rats were then switched to a diet containing 0.47% Ca for one week followed by two weeks on a diet containing 0.02% Ca. Dose administration began during the last week on 0.02% calcium diet. Four consecutive ip doses were given approximately 24 hours apart. Twenty-four hours after the last dose, blood was collected from the severed neck and the concentration of serum calcium determined as a measure of bone calcium mobilization. The first 10 cm of the intestine was also collected for intestinal calcium transport analysis using the everted gut sac method.

[3] = Intestinal calcium transport (everted gut sac method); type: in vivo, rat; conditions: rats, ip; FIG. 5
Method: as §4

[4] = Hypercalcemia: serum calcium in adult rats; type: in vivo, rat; conditions: ip, 7 consecutive days
Method: as §1, §2, §3
Both control and test articles were administered by intraperitoneal injection in 100 microliters for 4-7 consecutive days spaced approximately 24 hours apart. […]
Twenty-four hours after the final dose, approximately 1 ml of blood was collected from the tail artery of each experimental animal. […] The level of calcium was determined by diluting the serum into 0.1% lanthum chloride and measuring the absorbance on an atomic absorption spectrophotometer (Perkin Elmer Model 3110, Shelton, Conn.).

[5] = test system: 24-hydroxylase (24Ohase) gene promoter; assay: In vitro transcription assay (24-hydroxylase promoter luciferase reporter in ROS 17/2.8 cells); type: cell-based; conditions: compared with 1,25-(OH)2D3; FIG. 3
Method: Transcription activity was measured in ROS 17/2.8 (bone) cells that were stably transfected with a 24-hydroxylase (24Ohase) gene promoter upstream of a luciferase reporter gene (Arbour et al., 1998). Cells were given a range of doses. Sixteen hours after dosing the cells were harvested and luciferase activities were measured using a luminometer. RLU=relative luciferase units.

[6] = biological target: T1, full-length recombinant rat vitamin D receptor (Rattus norvegicus, UniProt P13053); assay: Vitamin D receptor binding, competition with [3H]-1,25-(OH)2-D3; conditions: compared with 1,25(OH)2D3; FIG. 1
T1 construct: Full-length recombinant rat receptor was expressed in E. coli BL21(DE3) Codon Plus RIL cells; histidine tag (C); made in house; host or cells: E. coli BL21(DE3) Codon Plus RIL
T1 sequence (P13053 1-423): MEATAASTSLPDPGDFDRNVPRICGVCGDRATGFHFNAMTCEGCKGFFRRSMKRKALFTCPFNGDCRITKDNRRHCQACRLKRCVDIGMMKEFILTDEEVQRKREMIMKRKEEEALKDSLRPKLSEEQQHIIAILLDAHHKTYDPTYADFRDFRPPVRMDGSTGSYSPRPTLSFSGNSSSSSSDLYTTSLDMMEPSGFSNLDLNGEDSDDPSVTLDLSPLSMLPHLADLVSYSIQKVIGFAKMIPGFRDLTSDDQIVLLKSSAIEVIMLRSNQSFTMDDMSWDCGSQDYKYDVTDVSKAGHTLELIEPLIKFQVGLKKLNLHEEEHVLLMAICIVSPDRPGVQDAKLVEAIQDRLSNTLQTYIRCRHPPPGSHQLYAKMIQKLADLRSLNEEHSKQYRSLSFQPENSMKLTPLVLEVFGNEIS
Method: Full-length recombinant rat receptor was expressed in E. coli BL21(DE3) Codon Plus RIL cells and purified to homogeneity using two different column chromatography systems. The first system was a nickel affinity resin that utilizes the C-terminal histidine tag on this protein. The protein that was eluted from this resin was further purified using ion exchange chromatography (S-Sepharose Fast Flow). Aliquots of the purified protein were quick frozen in liquid nitrogen and stored at −80° C. until use. For use in binding assays, the protein was diluted in TEDK50 (50 mM Tris, 1.5 mM EDTA, pH 7.4, 5 mM DTT, 150 mM KCl) with 0.1% Chaps detergent. The receptor protein and ligand concentration was optimized such that no more than 20% of the added radiolabeled ligand was bound to the receptor.
Unlabeled ligands were dissolved in ethanol and the concentrations determined using UV spectrophotometry (1,25(OH)2D3: molar extinction coefficient=18,200 and λmax=265 nm; Analogs: molar extinction coefficient=42,000 and λmax=252 nm). Radiolabeled ligand (^3H-1,25(OH)2D3, ˜159 Ci/mmole) was added in ethanol at a final concentration of 1 nM.
Radiolabeled and unlabeled ligands were added to 100 mcl of the diluted protein at a final ethanol concentration of ≦10%, mixed and incubated overnight on ice to reach binding equilibrium. […] Total binding was determined from the tubes containing only radiolabeled ligand.

serum calcium concentrations [4]: not raising serum calcium concentrations
binding to the vitamin D receptor relative to the native hormone [6]: almost equal to the native hormone
SMILES: C=C1[C@H](O)CC(=C/C=C2\CCC[C@]3(C)C([C@@H](C)CCC)CC[C@@H]23)C[C@H]1O (stereo in doubt) [2-Methylene-19-nor-(20S)-1α-hydroxy-trishomopregnacalciferol]
suppression of parathyroid hormone [1]: remarkably effective in suppressing parathyroid hormone
activity in inducing differentiation of HL-60 cells (HL-60 cells): equal in activity to 1,25-(OH)2D3
bone calcium mobilizing activity [2]: little bone calcium mobilizing activity
intestinal calcium transport [3]: retain some ability to elevate intestinal calcium transport
transcription activity [5]: within one order of magnitude of the activity of 1,25-(OH)2D3
